Test results published in patent publication US20230116972A1, “CD38 MODULATORS AND METHODS OF USE THEREOF” (Cytokinetics, Inc., priority 2021, published 2023).

How the values were obtained:
[1] = biological target: T1, human CD38 (Homo sapiens, UniProt P28907); experiment: human recombinant CD38 enzyme assay (hydrolysis of NAD+); format: biochemical; details: human recombinant CD38, 0.4 nM enzyme, 62.5 μM NAD+; read-out: hCD38 BioChem IC50
T1 sequence (P28907 1-300): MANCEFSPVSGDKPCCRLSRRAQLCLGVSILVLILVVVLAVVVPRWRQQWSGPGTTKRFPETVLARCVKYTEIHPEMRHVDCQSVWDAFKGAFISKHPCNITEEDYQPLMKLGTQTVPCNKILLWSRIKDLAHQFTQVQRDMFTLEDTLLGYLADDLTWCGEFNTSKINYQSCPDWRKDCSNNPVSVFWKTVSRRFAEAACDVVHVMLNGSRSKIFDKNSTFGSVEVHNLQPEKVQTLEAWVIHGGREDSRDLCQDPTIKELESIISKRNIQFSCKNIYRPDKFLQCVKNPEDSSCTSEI
In short: (§1)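 Recombinant human or mouse CD38 hydrolyzing NAD+ in a cell-free buffered system. Dose-responses were run for 60 min at ambient temperature. Remaining NAD+ was converted to NADH by alcohol dehydrogenase, which drove diaphorase reduction of resazurin to resorufin, read at 540/590 nm.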

[2] = biological target: T2, mouse CD38 (Mus musculus, UniProt P56528); experiment: mouse recombinant CD38 enzyme assay (hydrolysis of NAD+); format: biochemical; details: read-out: mCD38 BioChem IC50
T2 sequence (P56528 1-304): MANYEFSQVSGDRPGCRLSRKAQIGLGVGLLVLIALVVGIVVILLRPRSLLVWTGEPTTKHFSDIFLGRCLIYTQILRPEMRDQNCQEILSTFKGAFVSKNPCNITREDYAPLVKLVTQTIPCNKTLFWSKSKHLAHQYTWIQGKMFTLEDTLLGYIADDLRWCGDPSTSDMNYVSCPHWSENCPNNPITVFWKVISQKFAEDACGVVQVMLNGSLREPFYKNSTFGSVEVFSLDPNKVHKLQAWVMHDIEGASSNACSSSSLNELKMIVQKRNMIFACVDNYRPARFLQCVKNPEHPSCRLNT
In short: as §1

[3] = biological target: T3, endogenous CD38 in HL60 cells (Homo sapiens, UniProt P28907); experiment: cellular CD38 assay in HL60 cells (cellular NAD levels); format: cell-based; details: all-trans retinoic acid, 24 hours, read-out: hCD38 HL60 ATRA NAD Cell Diaphorase IC50
T3 construct: endogenous in cells; host or cells: HL60 (leukemic cells, treated with all-trans retinoic acid)
T3 sequence (P28907 1-300): T1 sequence (P28907 1-300)
Experimental: The compounds described herein were also assayed for their ability to inhibit the endogenous CD38 in a native cellular environment in the cellular CD38 assay, which measures the ability of the compound to modulate cellular NAD levels. […] The assays were initiated by plating 20 μL of HL60 cells in culture medium, at a density of 20000 cells per well to a 384-well Corning™ Multiwell Plates. Compounds in DMSO were added to the plates in a volume of 120 nL using the Labcyte Echo Liquid Handlers. […] The plates are then incubated for 24 hours. 50 μL of a readout-solution containing 0.2 U/mL Diaphorase enzyme, 40 uM resazurin, 10 uM FMN, 0.8 U/mL Alcohol dehydrogenase, 3% ethanol, 0.4 mg/mL bovine serum albumin, 0.2% Triton X-100 in 100 mM Tris-HCl, 30 mM EDTA, pH 8.4. The plates were read for fluorescence (Excitation/Emission=540 nm/590 nm) using an EnVision plate reader after 60 mins of incubation at ambient temperature. Note that, in Table 5, the “Compound No” corresponds to the compound numbers in Table 1.

| Structure (SMILES) | IC50 [1] [µM] | IC50 [2] [µM] | IC50 [3] [µM] |
| --- | --- | --- | --- |
| COc1ccc([C@H]2C[C@H](NC(=O)c3nccc(-n4ccnc4)n3)C2)cc1 [Compound 217, 4-(1H-imidazol-1-yl)-N-((1r,3r)-3-(4-methoxyphenyl)cyclobutyl)pyrimidine-2-carboxamide] | 0.0364 | 0.0197 | 1.97 |
| O=C(Nc1ccc(F)cc1)c1cccc(-n2ccnc2)n1 [Compound 19, N-(4-fluorophenyl)-6-(1H-imidazol-1-yl)picolinamide] | 0.007 | 0.009 | 0.345 |
| Cc1cc(C(=O)Nc2ccc(C(F)(F)F)nc2)nc(-n2ccnc2)n1 [Compound 117, 2-(1H-imidazol-1-yl)-6-methyl-N-(6-(trifluoromethyl)pyridin-3-yl)pyrimidine-4-carboxamide] | 0.004 | 0.001 | 0.35 |
| COCCOc1cc(-c2cncn2C)nc(C(=O)Nc2ccc(C(F)(F)F)nc2)n1 [Compound 233, 4-(2-methoxyethoxy)-6-(1-methyl-1H-imidazol-5-yl)-N-(6-(trifluoromethyl)pyridin-3-yl)pyrimidine-2-carboxamide] | 0.006 | 0.0011 | 1.04 |
| CO[C@H]1CC[C@H](NC(=O)c2cc(C(F)(F)F)cc(-n3ccnc3)n2)CC1 [Compound 60, 6-(1H-imidazol-1-yl)-N-(4-methoxycyclohexyl)-4-(trifluoromethyl)picolinamide] | 0.061 | 0.012 | 4.81 |
| Cn1cncc1-c1cc(C(C)(C)C)nc(C(=O)Nc2ccc(C(F)(F)F)nc2)n1 [Compound 190, 4-(tert-butyl)-6-(1-methyl-1H-imidazol-5-yl)-N-(6-(trifluoromethyl)pyridin-3-yl)pyrimidine-2-carboxamide] | 0.502 | 0.427 |  |
| O=C(N[C@H]1CC[C@H](CO)CC1)c1cc(C2CC2)nc(-c2cncs2)n1 [Compound 141, 6-cyclopropyl-N-((1r,4r)-4-(hydroxymethyl)cyclohexyl)-2-(thiazol-5-yl)pyrimidine-4-carboxamide] | 0.761 | 0.028 |  |
| O=C(NC1(c2ccc(C(F)(F)F)cc2)COC1)c1cccc(-n2ccnc2)n1 [Compound 58, 6-(1H-imidazol-1-yl)-N-(3-(4-(trifluoromethyl)phenyl)oxetan-3-yl)picolinamide] | 2.18 | 1.04 |  |
| Cn1cncc1-c1nc(C(=O)Nc2ccc(C(F)(F)F)nc2)cc(C(C)(C)O)n1 [Compound 176, 6-(2-hydroxypropan-2-yl)-2-(1-methyl-1H-imidazol-5-yl)-N-(6-(trifluoromethyl)pyridin-3-yl)pyrimidine-4-carboxamide] | 0.028 | 0.019 |  |
| O=C(NC1CN(c2ccccc2)C1)c1nccc(-n2ccnc2)n1 [Compound 262, 4-(1H-imidazol-1-yl)-N-(1-phenylazetidin-3-yl)pyrimidine-2-carboxamide] | 1.84 | 0.232 |  |
| O=C(Nc1ccc(C(F)F)nc1)c1cc(N2CCCC2)cc(-c2cncs2)n1 [Compound 179, N-(6-(Difluoromethyl)pyridin-3-yl)-4-(pyrrolidin-1-yl)-6-(thiazol-5-yl)picolinamide] | 1.38 | 0.142 |  |
| O=C(Nc1ccc(C(F)F)nc1)c1cc(C2CCC2)nc(-n2ccnc2)n1 [Compound 186, 6-cyclobutyl-N-(6-(difluoromethyl)pyridin-3-yl)-2-(1H-imidazol-1-yl)pyrimidine-4-carboxamide] | 0.01 | 0.005 |  |
| O=C(NC1CCS(=O)(=O)CC1)c1cc(C2CC2)nc(-c2cncs2)n1 [Compound 142, 6-cyclopropyl-N-(1,1-dioxidotetrahydro-2H-thiopyran-4-yl)-2-(thiazol-5-yl)pyrimidine-4-carboxamide] | 1.72 | 0.161 |  |
| CO[C@H]1CC[C@H](NC(=O)c2cc(C3CC3)nc(-n3ccnc3)n2)CC1 [Compound 160, 6-cyclopropyl-2-(1H-imidazol-1-yl)-N-((1r,4r)-4-methoxycyclohexyl)pyrimidine-4-carboxamide] | 0.027 | 0.004 |  |
| CO[C@H]1CC[C@H](NC(=O)c2cc(C(C)(C)O)nc(-c3cncn3C)n2)CC1 [Compound 178, 6-(2-Hydroxypropan-2-yl)-N-((1r,4r)-4-methoxycyclohexyl)-2-(1-methyl-1H-imidazol-5-yl)pyrimidine-4-carboxamide] | 0.057 | 0.013 |  |
| CO[C@H]1CC[C@H](NC(=O)c2cc(C3CCC3)nc(-n3ccnc3)n2)CC1 [Compound 184, 6-cyclobutyl-2-(1H-imidazol-1-yl)-N-((1r,4r)-4-methoxycyclohexyl)pyrimidine-4-carboxamide] | 0.056 | 0.016 |  |

More lines, now with the values ahead:

| IC50 [1] [µM] | IC50 [2] [µM] | IC50 [3] [µM] | Structure (SMILES) |
| --- | --- | --- | --- |
| 1.34 | 0.224 |  | O=C(N[C@H]1C[C@@H](c2ccc(C(F)(F)F)nc2)C1)c1nccc(-n2ccnc2)n1 [Compound 272, 4-(1H-imidazol-1-yl)-N-((1s,3s)-3-(6-(trifluoromethyl)pyridin-3-yl)cyclobutyl)pyrimidine-2-carboxamide] |
| 0.026 | 0.0047 |  | CO[C@H]1CC[C@H](NC(=O)c2cc(C3(O)CCC(F)(F)CC3)nc(-c3cncn3C)n2)CC1 [Compound 331, 6-(4,4-difluoro-1-hydroxycyclohexyl)-N-((1r,4r)-4-methoxycyclohexyl)-2-(1-methyl-1H-imidazol-5-yl)pyrimidine-4-carboxamide] |
| 1.27 | 0.244 |  | O=C(N[C@H]1CC[C@H](O)C1)c1nccc(-n2ccnc2)n1 [Compound 304, N-((1S,3S)-3-hydroxycyclopentyl)-4-(1H-imidazol-1-yl)pyrimidine-2-carboxamide] |
| 0.005 | 0.0098 |  | Cn1cncc1-c1ccnc(C(=O)Nc2ccc(OC3CCC(F)(F)CC3)nc2)n1 [Compound 330, N-(6-((4,4-difluorocyclohexyl)oxy)pyridin-3-yl)-4-(1-methyl-1H-imidazol-5-yl)pyrimidine-2-carboxamide] |
| 0.011 | 0.0015 |  | Cn1cncc1-c1nc(C(=O)Nc2ccc(C(C)(C)O)nc2)cc(C2CCOCC2)n1 [Compound 332, N-(6-(2-hydroxypropan-2-yl)pyridin-3-yl)-2-(1-methyl-1H-imidazol-5-yl)-6-(tetrahydro-2H-pyran-4-yl)pyrimidine-4-carboxamide] |
| 0.107 | 0.0113 |  | CO[C@H]1CC[C@H](NC(=O)c2nc(-c3cncn3C)cc(C(F)F)n2)CC1 [Compound 350, 4-(difluoromethyl)-N-((1r,4r)-4-methoxycyclohexyl)-6-(1-methyl-1H-imidazol-5-yl)pyrimidine-2-carboxamide] |
| 0.0414 | 0.0115 |  | CO[C@H]1CC[C@H](NC(=O)c2nc(-c3cncn3C)ncc2C)CC1 [Compound 328, N-((1r,4r)-4-methoxycyclohexyl)-5-methyl-2-(1-methyl-1H-imidazol-5-yl)pyrimidine-4-carboxamide] |
| 0.0087 | 0.0038 |  | Cn1cncc1-c1ncc(F)c(C(=O)N[C@H]2CC[C@H](OC(F)F)CC2)n1 [Compound 341, N-((1r,4r)-4-(difluoromethoxy)cyclohexyl)-5-fluoro-2-(1-methyl-1H-imidazol-5-yl)pyrimidine-4-carboxamide] |
| 0.761 | 0.198 |  | CO[C@H]1C[C@H](NC(=O)c2nccc(-n3ccnc3)n2)C1 [Compound 313, 4-(1H-imidazol-1-yl)-N-((1r,3r)-3-methoxycyclobutyl)pyrimidine-2-carboxamide] |
| 0.0418 | 0.0069 |  | Cn1cncc1-c1nc(C(=O)N[C@H]2CC[C@H](OC(F)(F)F)CC2)cc(C2CCC(F)(F)CC2)n1 [Compound 322, 6-(4,4-difluorocyclohexyl)-2-(1-methyl-1H-imidazol-5-yl)-N-((1r,4r)-4-(trifluoromethoxy)cyclohexyl)pyrimidine-4-carboxamide] |
| 0.621 | 0.199 |  | CCO[C@H]1C[C@H](NC(=O)c2nccc(-n3ccnc3)n2)C1 [Compound 301, N-((1r,3r)-3-ethoxycyclobutyl)-4-(1H-imidazol-1-yl)pyrimidine-2-carboxamide] |
